pIC50: −log10 of the molar value.
Assays:
[1] = system: PC-9 (EGFR exon 19 deletion); assay: Cellular IC50, Cell Titer Glo, PC-9 cell line; assay type: cell-based; conditions: Homo sapiens, PC-9 cells, 72 hours
Method: (§1) The PC-9 cell line was purchased from Sigma, and the HCC827 cell line was purchased from ATCC. Each cell line was maintained at ≤passage 10 at 37° C. in a humidified incubator with 5% CO2. Cells were plated in 96-well optical bottom plates (Corning #3903; Corning, NY) at a cell density of 5,000 cells/well, allowed to adhere for minimally 16 hours, and subsequently treated with the test compounds using an 11-point serial dilution (1:3) in duplicate using an HP D300 digital 4 dispenser (Tecan, Morrisville, NC). 72 hours after addition of the test compounds, Cell Titer Glo reagent (Promega, Madison, WI) was added to the plate according to manufacturer's protocol and luminescence measured using a Spectramax M5 (Molecular Devices, San Jose, CA). IC50s were calculated using the 4-parameter variable slope curve fit using the equation below where, Y and X are variables plotted, Top and Bottom are plateaus in the units of the Y axis, LogIC50 is the Log transformation of the IC50 value and HillSlope is the Hill Slope for the curve and describes curve steepness (GraphPad Prism, version 6.07, GraphPad Software, Inc.). Y=Bottom+(Top−Bottom)/(1+10((LogIC50−X)*HillSlope))).

[2] = system: HCC827 (EGFR exon 19 deletion); assay: Cellular IC50, Cell Titer Glo, HCC827 cell line; assay type: cell-based; conditions: Homo sapiens, HCC827 cells, 72 hours
Method: as §1

[3] = Brain penetration in non-tumor bearing mice; assay type: in vivo; conditions: for Brain Penetration (% of plasma): brain to plasma percentage; for Kpuu (Avg): unbound ratio of drug in brain to plasma
Excerpt: Disclosed in table 5 Brain to plasma percentages and unbound ratios of drugs in brain to plasma of indicated drugs in non-tumor bearing mice

SMILES	pIC50 [1]	pIC50 [2]	Brain Penetration (% of plasma) [3]	Kpuu (Avg) [3]
CN1CCC2CN(C[C@H]3COc4cc5ncnc(Nc6cccc(Br)c6F)c5cc4O3)CC21 (stereo partly shown)	7.89	8.23	–	–
CN1CC2CN(C[C@H]3COc4cc5ncnc(Nc6cccc(Br)c6F)c5cc4O3)CC2C1 (stereo partly shown)	7.66	7.84	–	–
CN1CCN(C[C@H]2COc3cc4ncnc(Nc5cccc(Br)c5F)c4cc3O2)CCC1C(F)(F)F (stereo partly shown)	7.27	7.43	–	–
CN1CCN(C[C@H]2COc3cc4ncnc(Nc5cccc(Br)c5F)c4cc3O2)CC(F)(F)C1	6.85	7.30	–	–
CN1CCC12CN(C[C@H]1COc3cc4ncnc(Nc5cccc(Br)c5F)c4cc3O1)C2	8.03	8.15	–	–
CN1CC2(C1)CN(C[C@H]1COc3cc4ncnc(Nc5cccc(Br)c5F)c4cc3O1)C2	8.00	8.23	–	–

Continued, values first:

pIC50 [1]	pIC50 [2]	Brain Penetration (% of plasma) [3]	Kpuu (Avg) [3]	SMILES
–	–	64.8 % of plasma	0.491	C#Cc1cccc(Nc2ncnc3cc4c(cc23)OCCO4)c1 [JGK005]
–	–	106.4 % of plasma	1.045	Fc1c(Cl)cccc1Nc1ncnc2cc3c(cc12)OCCO3 [JGK010]
–	–	106.2 % of plasma	1.037	Fc1cccc(Nc2ncnc3cc4c(cc23)OCCO4)c1F [JGK028]
–	–	84.3 % of plasma	0.575	C#Cc1cccc(Nc2ncnc3cc4c(cc23)OCCO4)c1F [JGK038]
–	–	167.6 % of plasma	1.033	Fc1c(I)cccc1Nc1ncnc2cc3c(cc12)OCCO3 [JGK042]
